Data reported in patent US7138361B2, “Herbicidal heterocycles” (E. I. du Pont de Nemours and Company, priority 2000, dated 2006).

Legend:
Format in all cases: in vivo
[1] = test system: smallflower flatsedge (Cyperus difformis); test: Test C flooded paddy test; details: for Flatsedge plant response rating: Flooded Paddy, scale 0 to 100, 0 no effect, 100 complete control; for Plant response rating, Flatsedge: flooded paddy test, scale 0 to 100 (0 no effect, 100 complete control)
Method in brief: (§1)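 Visually assessed vs untreated controls 12–14 d post-treatment (greenhouse). Flooded paddy plants were at the 2-leaf stage; scale 0 = no effect, 100 = complete control.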

[2] = test system: duck salad (Heteranthera limosa); test: Test C flooded paddy test; details: for Ducksalad plant response rating: Flooded Paddy, scale 0 to 100, 0 no effect, 100 complete control; for Plant response rating, Ducksalad: flooded paddy test, scale 0 to 100 (0 no effect, 100 complete control)
Method in brief: as §1

[3] = test system: barnyardgrass (Echinochloa crus-galli); test: Test C flooded paddy test; details: for Barnyardgrass plant response rating: Flooded Paddy, scale 0 to 100, 0 no effect, 100 complete control; for Plant response rating, Barnyardgrass: flooded paddy test, scale 0 to 100 (0 no effect, 100 complete control)
Method in brief: as §1

[4] = test system: morningglory (Ipomoea hederacea); test: Test C preemergence
Method in brief: (§2)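 Test chemicals, formulated in a non-phytotoxic solvent mixture with surfactant, were applied preemergence to planted seeds or postemergence to plants 2 to 18 cm tall (1- to 4-leaf stage). After 12 to 14 days in a greenhouse, injury was visually rated against untreated controls on a 0–100 scale.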

[5] = test system: woolly cupgrass (Eriochloa villosa); test: Test C preemergence
Method in brief: as §2

[6] = test system: cocklebur (Xanthium strumarium); test: Test C preemergence
Method in brief: as §2

[7] = test system: giant foxtail (Setaria faberii); test: Test C preemergence
Method in brief: as §2

[8] = test system: crabgrass (Digitaria sanguinalis); test: Test C preemergence
Method in brief: as §2

[9] = test system: bermudagrass (Cynodon dactylon); test: Test C preemergence
Method in brief: as §2

corn (Zea mays) = test: Test C preemergence
Method in brief: as §2

[10] = test system: goosegrass (Eleusine indica); test: Test C preemergence
Method in brief: as §2

[11] = test system: yellow nutsedge (Cyperus esculentus); test: Test C preemergence
Method in brief: as §2

soybean (Glycine max) = test: Test C preemergence
Method in brief: as §2

Sunflower = test: Test C preemergence
kochia (Kochia scoparia) = test: Test C preemergence
Method in brief: as §2

[12] = test system: pigweed (Amaranthus retroflexus); test: Test C preemergence
Method in brief: as §2

[13] = test system: Surinam grass (Brachiaria decumbens); test: Test C preemergence
Method in brief: as §2

[14] = test system: lambsquarters (Chenopodium album); test: Test C preemergence
Method in brief: as §2

[15] = test system: common ragweed (Ambrosia elatior); test: Test C preemergence
Method in brief: as §2

Nightshade = test: Test C preemergence
[16] = test system: velvetleaf (Abutilon theophrasti); test: Test C preemergence
Method in brief: as §2

[17] = test system: johnsongrass (Sorghum halepense); test: Test C preemergence
Method in brief: as §2

[18] = Preemergence, Rate 500 g/ha, scale 0 to 100
[19] = Rate 62 g/ha, scale 0 to 100, 0 no effect, 100 complete control
[20] = preemergence, Rate 31 g/ha, scale 0 to 100
[21] = preemergence, Rate 250 g/ha, visual evaluation after 12 to 14 days
[22] = preemergence, Rate 125 g/ha, scale 0 to 100, 0 no effect, 100 complete control

CC(C)(C)c1ccn(C2CCN(c3cccc(OC(F)(F)F)c3)C2=O)n1 (stereo not shown) [Compound 49]
Flatsedge plant response rating ([1]; Rate 250 g/ha): 100
Flatsedge plant response rating ([1]; Rate 500 g/ha): 100
Plant response rating, Flatsedge ([1]; Rate 62 g/ha): 100
Plant response rating, Flatsedge ([1]; Rate 125 g/ha): 100
Ducksalad plant response rating ([2]; Rate 250 g/ha): 90
Ducksalad plant response rating ([2]; Rate 500 g/ha): 100
Plant response rating, Ducksalad ([2]; Rate 62 g/ha): 50
Plant response rating, Ducksalad ([2]; Rate 125 g/ha): 70
Barnyardgrass plant response rating ([3]; Rate 250 g/ha): 100
Barnyardgrass plant response rating ([3]; Rate 500 g/ha): 100
Plant response rating, Barnyardgrass ([3]; Rate 62 g/ha): 100
Plant response rating, Barnyardgrass ([3]; Rate 125 g/ha): 100
Plant response rating, Morningglory [4, 18]: 30
Plant response rating, Morningglory [4, 19]: 0
Plant response rating, Morningglory [4, 20]: 0
Plant response rating (0 to 100), Morningglory [4, 21]: 0
Plant response rating, Morningglory [4, 22]: 0
Plant response rating, Cupgrass, Woolly [5, 18]: 100
Plant response rating, Cupgrass, Woolly [5, 19]: 30
Plant response rating, Cupgrass, Woolly [5, 20]: 20
Plant response rating (0 to 100), Cupgrass, Woolly [5, 21]: 70
Plant response rating, Cupgrass, Woolly [5, 22]: 60
Plant response rating, Cocklebur [6, 18]: 20
Plant response rating, Cocklebur [6, 19]: 0
Plant response rating, Cocklebur [6, 20]: 0
Plant response rating (0 to 100), Cocklebur [6, 21]: 0
Plant response rating, Cocklebur [6, 22]: 0
Plant response rating, Foxtail, Giant [7, 18]: 100
Plant response rating, Foxtail, Giant [7, 19]: 0
Plant response rating, Foxtail, Giant [7, 20]: 0
Plant response rating (0 to 100), Foxtail, Giant [7, 21]: 100
Plant response rating, Foxtail, Giant [7, 22]: 100
Plant response rating, Crabgrass [8, 18]: 100
Plant response rating, Crabgrass [8, 19]: 100
Plant response rating, Crabgrass [8, 20]: 0
Plant response rating (0 to 100), Crabgrass [8, 21]: 100
Plant response rating, Crabgrass [8, 22]: 100
Plant response rating, Bermudagrass [9, 18]: 100
Plant response rating, Bermudagrass [9, 19]: 100
Plant response rating, Bermudagrass [9, 20]: 0
Plant response rating (0 to 100 where 0 is no effect and 100 is complete control), Bermudagrass [9, 21]: 100
Plant response rating, Bermudagrass [9, 22]: 100
Plant response rating, Corn (corn (Zea mays); [18]): 0
Plant response rating, Corn (corn (Zea mays); [19]): 0
Plant response rating, Corn (corn (Zea mays); [20]): 0
Plant response rating (0 to 100), Corn (corn (Zea mays); [21]): 0
Plant response rating, Corn (corn (Zea mays); [22]): 0
Plant response rating, Goosegrass [10, 18]: 100
Plant response rating, Goosegrass [10, 19]: 100
Plant response rating, Goosegrass [10, 20]: 0
Plant response rating (0 to 100), Goosegrass [10, 21]: 100
Plant response rating, Goosegrass [10, 22]: 100
Plant response rating, Nutsedge [11, 18]: 0
Plant response rating, Nutsedge [11, 19]: 40
Plant response rating, Nutsedge [11, 20]: 30
Plant response rating (0 to 100), Nutsedge [11, 21]: 0
Plant response rating, Nutsedge [11, 22]: 50
Plant response rating, Soybean (soybean (Glycine max); [18]): 80
Plant response rating, Soybean (soybean (Glycine max); [19]): 0
Plant response rating, Soybean (soybean (Glycine max); [20]): 0
Plant response rating (0 to 100), Soybean (soybean (Glycine max); [21]): 50
Plant response rating, Soybean (soybean (Glycine max); [22]): 40
Plant response rating, Sunflower (Sunflower; [19]): 20
Plant response rating, Sunflower (Sunflower; Rate 500 g/ha, scale 0 to 100): 80
Plant response rating, Kochia (kochia (Kochia scoparia); [18]): 100
Plant response rating, Kochia (kochia (Kochia scoparia); [19]): 90
Plant response rating, Kochia (kochia (Kochia scoparia); [20]): 50
Plant response rating (0 to 100), Kochia (kochia (Kochia scoparia); [21]): 100
Plant response rating, Kochia (kochia (Kochia scoparia); [22]): 90
Plant response rating, Pigweed [12, 18]: 100
Plant response rating, Pigweed [12, 19]: 100
Plant response rating, Pigweed [12, 20]: 70
Plant response rating (0 to 100), Pigweed [12, 21]: 100
Plant response rating, Pigweed [12, 22]: 100
Plant response rating, Surinam grass [13, 18]: 80
Plant response rating, Surinam grass [13, 19]: 0
Plant response rating, Surinam grass [13, 20]: 0
Plant response rating (0 to 100), Surinam grass [13, 21]: 70
Plant response rating, Surinam grass [13, 22]: 0
Plant response rating, Lambsquarters [14, 18]: 100
Plant response rating, Lambsquarters [14, 19]: 100
Plant response rating, Lambsquarters [14, 20]: 100
Plant response rating (0 to 100), Lambsquarters [14, 21]: 100
Plant response rating, Lambsquarters [14, 22]: 100
Plant response rating, Ragweed, Common [15, 18]: 90
Plant response rating, Ragweed, Common [15, 19]: 0
Plant response rating, Ragweed, Common [15, 20]: 0
Plant response rating (0 to 100), Ragweed, Common [15, 21]: 30
Plant response rating, Ragweed, Common [15, 22]: 30
Plant response rating, Nightshade (Nightshade; Rate 31 g/ha, scale 0 to 100): 0
Plant response rating, Nightshade (Nightshade; [19]): 0
Plant response rating, Nightshade (Nightshade; Rate 125 g/ha, scale 0 to 100, 0 no effect, 100 complete control): 30
Plant response rating, Nightshade (Nightshade; Rate 500 g/ha, scale 0 to 100): 90
Plant response rating, Velvetleaf [16, 18]: 40
Plant response rating, Velvetleaf [16, 19]: 0
Plant response rating, Velvetleaf [16, 20]: 0
Plant response rating (0 to 100), Velvetleaf [16, 21]: 30
Plant response rating, Velvetleaf [16, 22]: 0
Plant response rating, Johnsongrass [17, 18]: 90
Plant response rating, Johnsongrass [17, 19]: 0
Plant response rating, Johnsongrass [17, 20]: 0
Plant response rating (0 to 100), Johnsongrass [17, 21]: 50
Plant response rating, Johnsongrass [17, 22]: 0
